Literature values, collected in patent publication US20170239214A1, “COMPOSITION FOR PREVENTING OR TREATING OBESITY CONTAINING ALPHA-LIPOIC ACID AND N-ACETYLCYSTEINE AS ACTIVE INGREDIENTS” (The Asan Foundation, priority 2015, published 2017).

Legend:
[1] = rats
[2] = mice

SMILES: CC(=O)N[C@@H](CS)C(=O)O [N-acetylcysteine]
- improving insulin resistance [1]: improving insulin resistance
- inhibiting a weight gain [1]: significant effects of inhibiting a weight gain

SMILES: O=C(O)CCCCC1CCSS1 (stereo not drawn) [α-lipoic acid]
- appetite suppressant effect [2]: pronounced appetite suppressant effect
